US6706663B2, “Herbicidal 3-heterocyclic substituted benzisothiazole and benzisoxazole compounds” (Wyeth, priority 2000, dated 2004)

Columns and labels:
CYPIR (Cyperus iria) = assay: Flooded paddy, postemergence weed control; format: in vivo; conditions: postemergence weeds, rated 3-4 weeks after treatment
Description: (§1) Results of herbicide evaluation are expressed on a rating scale (0-9). The scale is based upon a visual observation of plant stand, vigor, malformation, size, chlorosis and overall plant appearance as compared with a control.
Plastic containers containing weeds which are 3 to 5 cm tall and rice seedlings at the 1.5 to 2.5 leaf stage are flooded with water. The water is maintained at 1.5 to 3 cm above the soil surface for the duration of the experiment. Test compounds are applied as aqueous/acetone mixtures 50/50 v/v directly into the flood water to provide the equivalent of about 0.0320 to 0.2500 kg/ha of active ingredient. The treated containers are placed on greenhouse benches and cared for in accordance with conventional greenhouse procedures. Three to four weeks after treatment, the test is terminated and each container is examined and herbicidal effect rated according to the rating system provided in Example 87. The compounds evaluated are identified in Example 87 and plant species used are identified in Example 89.

GLXMA (Soybean) [1] = assay: Preemergence herbicidal evaluation; format: in vivo, Glycine max, (L.) Merr.; conditions: rated 4-5 weeks after treatment
GLXMA (Soybean) [2] = assay: Postemergence herbicidal evaluation; format: in vivo, Glycine max, (L.) Merr.; conditions: for GLXMA herbicidal rating: postemergence
Protocol: In the tests, seedling plants are grown in jiffy flats for about two weeks. The test compounds are dispersed in 50/50 acetone/water mixtures containing 0.5% TWEEN® 20, a polyoxyethylene sorbitan monolaurate surfactant of Atlas Chemical Industries, in sufficient quantities to provide the equivalent of about 0.0040 kg to 1.000 kg per hectare of active compound when applied to the plants through a spray nozzle operating at 40 psi for a predetermined time. After spraying, the plants are placed on greenhouse benches and are cared for in accordance with conventional greenhouse procedures. From four to five weeks after treatment, the seedling plants are examined and rated according to the rating system set forth below. Where more than one test is involved for a given compound, the data are averaged.
as §1

[3] = preemergence, rate 0.0620 kg/ha
[4] = preemergence, rate 0.1250 kg/ha
[5] = preemergence, rate 0.2500 kg/ha

Compound: Cc1ccc(-c2nsc3ccc(-n4c(=O)cc(C(F)(F)F)n(C)c4=O)cc23)s1 [Compound 21, 1-methyl-3-[3-(5-methyl-2-thienyl)-1,2-benzisothiazol-5-yl]-6-(trifluoromethyl)uracil]
- herbicide rating (0-9) CYPIR (CYPIR (Cyperus iria); 0.0320 kg/ha into flood water): 9.0
- herbicide rating (0-9) CYPIR (CYPIR (Cyperus iria); 0.0620 kg/ha into flood water): 9.0
- herbicide rating (0-9) CYPIR (CYPIR (Cyperus iria); 0.1250 kg/ha into flood water): 9.0

Compound: Cn1c(C(F)(F)F)cc(=O)n(-c2ccc3snc(C4OCC(CS(C)(=O)=O)O4)c3c2)c1=O (single isomer, unassigned) [Compound 87, 1-methyl-3-[3-[4-[(methylsulfonyl)methyl]-1,3-dioxolan-2-yl]-1,2-benzisothiazol-5-yl]-6-(trifluoromethyl)uracil]
- Preemergence herbicidal rating GLXMA (GLXMA (Soybean) [1]; [3]): 9.0
- Preemergence herbicidal rating GLXMA (GLXMA (Soybean) [1]; [4]): 9.0
- Preemergence herbicidal rating GLXMA (GLXMA (Soybean) [1]; [5]): 9.0

Compound: Cn1c(C(F)(F)F)cc(=O)n(-c2ccc3snc(C4OCC(C[S+](C)[O-])O4)c3c2)c1=O (stereo not shown) [Compound 88, 1-methyl-3-[3-[4-[(methylsulfinyl)methyl]-1,3-dioxolan-2-yl]-1,2-benzisothiazol-5-yl]-6-(trifluoromethyl)uracil]
- Preemergence herbicidal rating GLXMA (GLXMA (Soybean) [1]; [3]): 9.0
- Preemergence herbicidal rating GLXMA (GLXMA (Soybean) [1]; [4]): 9.0
- Preemergence herbicidal rating GLXMA (GLXMA (Soybean) [1]; [5]): 9.0

Compound: CSCC1COC(c2nsc3ccc(-n4c(=O)cc(C(F)(F)F)n(C)c4=O)cc23)O1 (stereo not shown) [Compound 84, 1-methyl-3-[3-[4-[(methylthio)methyl]-1,3-dioxolan-2-yl]-1,2-benzisothiazol-5-yl]-6-(trifluoromethyl)uracil]
- Preemergence herbicidal rating GLXMA (GLXMA (Soybean) [1]; [3]): 9.0
- Preemergence herbicidal rating GLXMA (GLXMA (Soybean) [1]; [4]): 9.0
- Preemergence herbicidal rating GLXMA (GLXMA (Soybean) [1]; [5]): 9.0

Compound: Cn1c(C(F)(F)F)cc(=O)n(-c2ccc3snc(C4OCC(CS(C)(=O)=O)O4)c3c2)c1=O (single isomer, unassigned) [Compound 86, 1-methyl-3-[3-[4-[(methylsulfonyl)methyl]-1,3-dioxolan-2-yl]-1,2-benzisothiazol-5-yl]-6-(trifluoromethyl)uracil]
- Preemergence herbicidal rating GLXMA (GLXMA (Soybean) [1]; [3]): 5.0
- Preemergence herbicidal rating GLXMA (GLXMA (Soybean) [1]; [4]): 9.0
- Preemergence herbicidal rating GLXMA (GLXMA (Soybean) [1]; [5]): 9.0

Compound: CCc1cc(-c2nsc3ccc(-n4c(=O)cc(C(F)(F)F)n(C)c4=O)cc23)c(CC)s1 [Compound 8, 3-[3-(2,5-diethyl-3-thienyl)-1,2-benzisothiazol-5-yl]-1-methyl-6-(trifluoromethyl)uracil]
- herbicide rating (0-9) CYPIR (CYPIR (Cyperus iria); 0.0320 kg/ha into flood water): 9.0
- herbicide rating (0-9) CYPIR (CYPIR (Cyperus iria); 0.0620 kg/ha into flood water): 9.0
- herbicide rating (0-9) CYPIR (CYPIR (Cyperus iria); 0.1250 kg/ha into flood water): 9.0

Compound: Cn1c(C(F)(F)F)cc(=O)n(-c2ccc3snc(-c4ccsc4)c3c2)c1=O [Compound 1, 1-methyl-3-[3-(3-thienyl)-1,2-benzisothiazol-5-yl]-6-(trifluoromethyl)uracil]
- herbicide rating (0-9) CYPIR (CYPIR (Cyperus iria); 0.0320 kg/ha into flood water): 9.0
- herbicide rating (0-9) CYPIR (CYPIR (Cyperus iria); 0.0620 kg/ha into flood water): 9.0
- herbicide rating (0-9) CYPIR (CYPIR (Cyperus iria); 0.1250 kg/ha into flood water): 9.0

Compound: Cn1c(C(F)(F)F)cc(=O)n(-c2ccc3snc(-c4nccs4)c3c2)c1=O [Compound 53, 1-methyl-3-[3-(2-thiazolyl)-1,2-benzisothiazol-5-yl]-6-(trifluoromethyl)uracil]
- herbicide rating (0-9) CYPIR (CYPIR (Cyperus iria); 0.0320 kg/ha into flood water): 0.0
- herbicide rating (0-9) CYPIR (CYPIR (Cyperus iria); 0.1250 kg/ha into flood water): 7.0

Compound: Cc1cc(C)c(-c2nsc3ccc(-n4c(=O)cc(C(F)(F)F)n(C)c4=O)cc23)s1 [Compound 27, 3-[3-(3,5-dimethyl-2-thienyl)-1,2-benzisothiazol-5-yl]-1-methyl-6-(trifluoromethyl)uracil]
- herbicide rating (0-9) CYPIR (CYPIR (Cyperus iria); 0.0320 kg/ha into flood water): 9.0
- herbicide rating (0-9) CYPIR (CYPIR (Cyperus iria); 0.0620 kg/ha into flood water): 9.0
- herbicide rating (0-9) CYPIR (CYPIR (Cyperus iria); 0.1250 kg/ha into flood water): 9.0

Compound: COC(=O)COc1ccsc1-c1nsc2ccc(-n3c(=O)cc(C(F)(F)F)n(C)c3=O)cc12 [Compound 22, Methyl [(2-[5-[3,6-dihydro-3-methyl-2,6-dioxo-4-(trifluoromethyl)-1(2H)-pyrimidinyl]-1,2-benzisothiazol-3-yl]-3-thienyl]oxy]acetate]
- herbicide rating (0-9) CYPIR (CYPIR (Cyperus iria); 0.0320 kg/ha into flood water): 0.0
- herbicide rating (0-9) CYPIR (CYPIR (Cyperus iria); 0.0620 kg/ha into flood water): 0.0
- herbicide rating (0-9) CYPIR (CYPIR (Cyperus iria); 0.1250 kg/ha into flood water): 0.0

Compound: Cn1c(C(F)(F)F)cc(=O)n(-c2ccc3snc(-c4ncccn4)c3c2)c1=O [Compound 12, 1-methyl-3-[3-(2-pyrimidinyl)-1,2-benzisothiazol-5-yl]-6-(trifluoromethyl)uracil]
- herbicide rating (0-9) CYPIR (CYPIR (Cyperus iria); 0.1250 kg/ha into flood water): 9.0

Compound: Cn1c(C(F)(F)F)cc(=O)n(-c2cc3c(C4OCCO4)nsc3cc2F)c1=O [Compound 61, 3-[3-(1,3-dioxolan-2-yl)-6-fluoro-1,2-benzisothiazol-5-yl]-1-methyl-6-(trifluoromethyl)uracil]
- GLXMA herbicidal rating (GLXMA (Soybean) [2]; rate 0.0320 kg/ha): 8.5
- GLXMA herbicidal rating (GLXMA (Soybean) [2]; rate 0.0620 kg/ha): 8.5
- herbicide rating (0-9) CYPIR (CYPIR (Cyperus iria); 0.0320 kg/ha into flood water): 9.0
- herbicide rating (0-9) CYPIR (CYPIR (Cyperus iria); 0.0620 kg/ha into flood water): 9.0
- herbicide rating (0-9) CYPIR (CYPIR (Cyperus iria); 0.1250 kg/ha into flood water): 9.0

Compound: Cc1ccsc1-c1nsc2ccc(-n3c(=O)cc(C(F)(F)F)n(C)c3=O)cc12 [Compound 4, 1-methyl-3-[3-(3-methyl-2-thienyl)-1,2-benzisothiazol-5-yl]-6-(trifluoromethyl)uracil]
- Postemergence herbicidal rating, GLXMA (GLXMA (Soybean) [2]; rate 0.0320 kg/ha): 9.0

Compound: 1-methyl-3-[3-(1,3-oxathian-2-yl)-1,2-benzisothiazol-5-yl]-6-(trifluoromethyl)uracil S′,S′-dioxide [Compound 35]
- herbicide rating (0-9) CYPIR (CYPIR (Cyperus iria); 0.0620 kg/ha into flood water): 9.0
- herbicide rating (0-9) CYPIR (CYPIR (Cyperus iria); 0.1250 kg/ha into flood water): 9.0
- herbicide rating (0-9) CYPIR (CYPIR (Cyperus iria); 0.2500 kg/ha into flood water): 9.0

Compound: Cn1c(C(F)(F)F)cc(=O)n(-c2ccc3snc(C4OCCO4)c3c2)c1=O [Compound 45, 3-[3-(1,3-dioxolan-2-yl)-1,2-benzisothiazol-5-yl]-1-methyl-6-(trifluoromethyl)uracil]
- Preemergence herbicidal rating GLXMA (GLXMA (Soybean) [1]; Rate 0.0620 kg/ha): 9.0
- Preemergence herbicidal rating GLXMA (GLXMA (Soybean) [1]; Rate 0.1250 kg/ha): 9.0
- Preemergence herbicidal rating GLXMA (GLXMA (Soybean) [1]; Rate 0.2500 kg/ha): 9.0

Compound: Cn1c(C(F)(F)F)cc(=O)n(-c2ccc3snc(-c4sccc4Cl)c3c2)c1=O [Compound 52, 3-[3-(3-chloro-2-thienyl)-1,2-benzisothiazol-5-yl]-1-methyl-6-(trifluoromethyl)uracil]
- herbicide rating (0-9) CYPIR (CYPIR (Cyperus iria); 0.1250 kg/ha into flood water): 9.0

Compound: Cc1cscc1-c1nsc2ccc(-n3c(=O)cc(C(F)(F)F)n(C)c3=O)cc12 [Compound 26, 1-methyl-3-[3-(4-methyl-3-thienyl)-1,2-benzisothiazol-5-yl]-6-(trifluoromethyl)uracil]
- herbicide rating (0-9) CYPIR (CYPIR (Cyperus iria); 0.0320 kg/ha into flood water): 9.0
- herbicide rating (0-9) CYPIR (CYPIR (Cyperus iria); 0.0620 kg/ha into flood water): 9.0
- herbicide rating (0-9) CYPIR (CYPIR (Cyperus iria); 0.1250 kg/ha into flood water): 9.0
